Test results reported in patent publication US20230167073A1 (Teijin Pharma Limited, priority 2020, published 2023).

Each molecule was assayed against T1, Human TRPC6 (Homo sapiens, UniProt Q9Y210) (assay: Evaluation of TRPC6 channel inhibitory activity (1), FLIPR Calcium 5 Assay Kit, OAG stimulation (Compound Nos. 1-1293)). Settings: not given.
T1 construct: expressed in transfected cells
T1 sequence (Q9Y210 1-931): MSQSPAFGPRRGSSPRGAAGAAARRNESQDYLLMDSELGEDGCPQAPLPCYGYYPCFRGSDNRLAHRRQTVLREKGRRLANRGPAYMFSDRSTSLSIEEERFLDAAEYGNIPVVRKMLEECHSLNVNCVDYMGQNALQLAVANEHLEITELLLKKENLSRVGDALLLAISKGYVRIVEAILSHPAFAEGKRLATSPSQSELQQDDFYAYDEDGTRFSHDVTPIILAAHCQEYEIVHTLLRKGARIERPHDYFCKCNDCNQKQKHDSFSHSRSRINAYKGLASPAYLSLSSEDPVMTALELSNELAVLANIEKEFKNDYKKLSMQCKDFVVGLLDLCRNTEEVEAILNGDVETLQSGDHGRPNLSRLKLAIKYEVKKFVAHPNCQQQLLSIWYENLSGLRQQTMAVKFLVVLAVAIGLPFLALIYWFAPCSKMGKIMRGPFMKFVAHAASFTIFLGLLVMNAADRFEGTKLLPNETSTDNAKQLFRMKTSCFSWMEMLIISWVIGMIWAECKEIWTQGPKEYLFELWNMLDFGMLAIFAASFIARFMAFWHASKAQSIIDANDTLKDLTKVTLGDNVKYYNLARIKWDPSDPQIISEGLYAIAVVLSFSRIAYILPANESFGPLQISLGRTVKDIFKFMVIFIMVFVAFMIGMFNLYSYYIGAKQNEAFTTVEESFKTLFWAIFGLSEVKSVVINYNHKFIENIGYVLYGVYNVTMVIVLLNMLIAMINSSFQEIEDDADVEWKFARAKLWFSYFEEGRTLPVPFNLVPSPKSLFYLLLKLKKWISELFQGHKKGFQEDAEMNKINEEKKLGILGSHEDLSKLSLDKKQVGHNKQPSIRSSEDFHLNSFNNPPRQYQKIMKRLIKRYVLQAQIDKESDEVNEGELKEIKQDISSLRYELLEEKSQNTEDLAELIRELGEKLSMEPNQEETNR
Type: cell-based
In short: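 The FLIPR signal is maximum fluorescence after 30 μM OAG minus minimum before compound, measured in a human TRPC6 stable line loaded with Calcium 5 dye. Compounds were preincubated 20 min. pIC50 came from four-parameter logistic fitting of inhibition rates and is given as symbol ranges.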

Q: For N#Cc1ccc(-c2ncc(CCN)cn2)c(Oc2cc(N3C4CCC3CC4)ncc2C#N)c1 [compound 748, 4-[2-[5-(2-aminoethyl)pyrimidin-2-yl]-5-cyanophenoxy]-6-(7-azabicyclo[2.2.1]heptan-7-yl)pyridine-3-carbomtrile], which IC50 is on record?
A: < 10 nM

Q: Which IC50 does the source give for N#Cc1ccc(-c2ncc(CN)cn2)c(Oc2cc(N3C4CCC3CC4)ncc2C#N)c1 [compound 749, 4-[2-[5-(aminomethyl)pyrimidin-2-yl]-5-cyanophenoxy]-6-(7-azabicyclo[2.2.1]heptan-7-yl)pyridine-3-carbonitrile] here?
A: 10 to 1000 nM

Q: Which IC50 does the source give for N#Cc1ccc(-c2ncc(CCN)cn2)c(Oc2ccc(N3C4CCC3CC4)nc2)c1 [compound 752, 4-[5-(2-aminoethyl)pyrimidin-2-yl]-3-[6-(7-azabicyclo[2.2.1]heptan-7-yl)pyridin-3-yl]oxybenzonitrile] here?
A: 10 to 1000 nM

Q: How did the IC50 turn out when N#Cc1ccc(-c2ncc(CCN)cn2)c(Oc2nnc(N3C4CCC3CC4)s2)c1 [compound 767, 4-[5-(2-aminoethyl)pyrimidin-2-yl]-3-[[5-(7-azabicyclo[2.2.1]heptan-7-yl)-1,3,4-thiadiazol-2-yl]oxy]benzonitrile] was run?
A: < 10 nM

Same assay, conditions: Human TRPC6 stably-expressing cells, OAG 30 μM, FLIPR Calcium 5 Assay Kit; read-out: Inhibitory activity (pIC50 class) (converted)

Q: For N#Cc1ccc(-c2ncc(CCN)cn2)c(Oc2cc(N3CCCC3)ncc2C#N)c1 [compound 739, 4-[2-[5-(2-aminoethyl)pyrimidin-2-yl]-5-cyanophenoxy]-6-pyrrolidin-1-ylpyridine-3-carbonitrile], which IC50 is on record?
A: 10 to 1000 nM

Q: For N#Cc1ccc(-c2ncc(CN)cn2)c(Oc2cc(N3CCCC3)ncc2C#N)c1 [compound 740, 4-[2-[5-(aminomethyl)pyrimidin-2-yl]-5-cyanophenoxy]-6-pyrrolidin-1-ylpyridine-3-carbonitrile], which IC50 is on record?
A: > 1000 nM

Q: With Cn1nc(N2CCCC2)cc1Oc1cc(C#N)ccc1-c1ccc(CC2(N)COC2)cn1 [compound 741, 4-[5-[(3-aminooxetan-3-yl)methyl]pyridin-2-yl]-3-(2-methyl-5-pyrrolidin-1-ylpyrazol-3-yl)oxybenzonitrile] as the molecule, how does the IC50 read?
A: 10 to 1000 nM

Q: Which IC50 does the source give for Cn1nc(N2CCCCC2)cc1Oc1cc(C#N)ccc1-c1ccc(CC2(N)COC2)cn1 [compound 742, 4-[5-[(3-aminooxetan-3-yl)methyl]pyridin-2-yl]-3-(2-methyl-5-piperidin-1-ylpyrazol-3-yl)oxybenzonitrile] here?
A: < 10 nM

Q: For CN(C)c1cc(Oc2cc(C#N)ccc2-c2ccc(CC3(N)COC3)cn2)n(C)n1 [compound 743, 4-[5-[(3-aminooxetan-3-yl)methyl]pyridin-2-yl]-3-[5-(dimethylamino)-2-methylpyrazol-3-yl]oxybenzonitrile], which IC50 is on record?
A: < 10 nM

Q: How did the IC50 turn out when Cc1nc(Oc2cc(C#N)ccc2-n2cc3c(n2)CCNC3)cc(N2CCCCC2)n1 [compound 744, 3-(2-methyl-6-piperidin-1-ylpyrimidin-4-yl)oxy-4-(4,5,6,7-tetrahydropyrazolo[4,3-c]pyridin-2-yl)benzonitrile] was run?
A: 10 to 1000 nM

Q: How did the IC50 turn out when Cc1nc(Oc2cc(C#N)ccc2-n2ncc3c2CCNC3)cc(N2CCCCC2)n1 [compound 745, 3-(2-methyl-6-piperidin-1-ylpyrimidin-4-yl)oxy-4-(4,5,6,7-tetrahydropyrazolo[4,3-c]pyridin-1-yl)benzonitrile] was run?
A: > 1000 nM

Q: How did the IC50 turn out when Cc1nc(Oc2cc(C#N)ccc2-n2cc3c(n2)CNCC3)cc(N2CCCCC2)n1 [compound 746, 3-(2-methyl-6-piperidin-1-ylpyrimidin-4-yl)oxy-4-(4,5,6,7-tetrahydropyrazolo[3,4-c]pyridin-2-yl)benzonitrile] was run?
A: > 1000 nM

Q: Cc1nc(Oc2cc(C#N)ccc2-n2ncc3c2CNCC3)cc(N2CCCCC2)n1 [compound 747, 3-(2-methyl-6-piperidin-1-ylpyrimidin-4-yl)oxy-4-(4,5,6,7-tetrahydropyrazolo[3,4-c]pyridin-1-yl)benzonitrile] was tested. Which IC50 did it give?
A: > 1000 nM

Q: With N#Cc1ccc(-c2ncc(CCN)cn2)c(Oc2ccc(N3CCCC3)nc2)c1 [compound 750, 4-[5-(2-aminoethyl)pyrimidin-2-yl]-3-(6-pyrrolidin-1-ylpyridin-3-yl)oxybenzonitrile] as the molecule, how does the IC50 read?
A: 10 to 1000 nM

Q: Which IC50 does the source give for N#Cc1ccc(-c2ncc(CN)cn2)c(Oc2ccc(N3CCCC3)nc2)c1 [compound 751, 4-[5-(aminomethyl)pyrimidin-2-yl]-3-(6-pyrrolidin-1-ylpyridin-3-yl)oxybenzonitrile] here?
A: > 1000 nM

Q: For N#Cc1ccc(-c2ncc(CN)cn2)c(Oc2ccc(N3C4CCC3CC4)nc2)c1 [compound 753, 4-[5-(aminomethyl)pyrimidin-2-yl]-3-[6-(7-azabicyclo[2.2.1]heptan-7-yl)pyridin-3-yl]oxybenzonitrile], which IC50 is on record?
A: > 1000 nM

Q: For CCN(CC)c1cc(Oc2cc(C#N)ccc2-c2ccc(CCN)cn2)n(C)n1 [compound 754, 4-[5-(2-aminoethyl)pyridin-2-yl]-3-[5-(diethylamino)-2-methylpyrazol-3-yl]oxybenzonitrile], which IC50 is on record?
A: < 10 nM

Q: With Cn1nc(N2CCCC2=O)cc1Oc1cc(C#N)ccc1-c1ccc(CCN)cn1 [compound 755, 4-[5-(2-aminoethyl)pyridin-2-yl]-3-[2-methyl-5-(2-oxopyrrolidin-1-yl)pyrazol-3-yl]oxybenzonitrile] as the molecule, how does the IC50 read?
A: 10 to 1000 nM

Q: Which IC50 does the source give for Cn1nc(C2CC2)cc1Oc1cc(C#N)ccc1-c1cc(C(=O)N2CCC[C@H](N)C2)cn2ccnc12 [compound 756, 4-[6-[(3S)-3-aminopiperidine-1-carbonyl]imidazo[1,2-a]pyridin-8-yl]-3-(5-cyclopropyl-2-methylpyrazol-3-yl)oxybenzonitrile] here?
A: > 1000 nM

Q: With Cn1nc(C2CC2)cc1Oc1cc(C#N)ccc1-c1cc(C(=O)N2CCC[C@@H](N)C2)cn2ccnc12 [compound 757, 4-[6-[(3R)-3-aminopiperidine-1-carbonyl]imidazo[1,2-a]pyridin-8-yl]-3-(5-cyclopropyl-2-methylpyrazol-3-yl)oxybenzonitrile] as the molecule, how does the IC50 read?
A: > 1000 nM

Q: With CC(C)CN(C)c1cc(Oc2cc(C#N)ccc2-c2ncc(CCN)cn2)n(C)n1 [compound 758, 4-[5-(2-aminoethyl)pyrimidin-2-yl]-3-[2-methyl-5-[methyl(2-methylpropyl)amino]pyrazol-3-yl]oxybenzonitrile] as the molecule, how does the IC50 read?
A: < 10 nM

Q: CCCN(CCC)c1cc(Oc2cc(C#N)ccc2-c2ncc(CCN)cn2)n(C)n1 [compound 759, 4-[5-(2-aminoethyl)pyrimidin-2-yl]-3-[5-(dipropylamino)-2-methylpyrazol-3-yl]oxybenzonitrile] was tested. Which IC50 did it give?
A: < 10 nM

Q: With COCCN(C)c1cc(Oc2cc(C#N)ccc2-c2ncc(CCN)cn2)n(C)n1 [compound 760, 4-[5-(2-aminoethyl)pyrimidin-2-yl]-3-[5-[2-methoxyethyl(methyl)amino]-2-methylpyrazol-3-yl]oxybenzonitrile] as the molecule, how does the IC50 read?
A: < 10 nM

Q: How did the IC50 turn out when Cn1nc(-c2ccccn2)cc1Oc1cc(C#N)ccc1-c1nc(Cl)c2c(n1)CCNC2 [compound 761] was run?
A: > 1000 nM

Q: How did the IC50 turn out when CN(C)c1nc(-c2ccc(C#N)cc2Oc2cc(-c3ccccn3)nn2C)nc2c1CNCC2 [compound 762, 4-[4-(dimethylamino)-5,6,7,8-tetrahydropyrido[4,3-d]pyrimidin-2-yl]-3-(2-methyl-5-pyridin-2-ylpyrazol-3-yl)oxybenzonitrile] was run?
A: > 1000 nM

Q: With Cn1nc(C2CC2)cc1Oc1cc(C#N)ccc1-c1nnc2n1CCNC2 [compound 763, 3-(5-cyclopropyl-2-methylpyrazol-3-yl)oxy-4(5,6,7,8-tetrahydro-[1,2,4]triazolo[4,3-a]pyrazin-3-yl)benzonitrile] as the molecule, how does the IC50 read?
A: > 1000 nM

Q: With CC(C)Nc1cc(Oc2cc(C#N)ccc2-c2ncc(CN)cn2)cnn1 [compound 764, 4-[5-(aminomethyl)pyrimidin-2-yl]-3-[6-(propan-2-ylamino)pyridazin-4-yl]oxybenzonitrile] as the molecule, how does the IC50 read?
A: 10 to 1000 nM

Q: With CC(C)CNc1cc(Oc2cc(C#N)ccc2-c2ncc(CN)cn2)cnn1 [compound 765, 4-[5-(aminomethyl)pyrimidin-2-yl]-3-[6-(2-methylpropylamino)pyridazin-4-yl]oxybenzonitrile] as the molecule, how does the IC50 read?
A: < 10 nM

Q: For N#Cc1ccc(-c2ncc(CN)cn2)c(Oc2cnnc(NC3COC3)c2)c1 [compound 766, 4-[5-(aminomethyl)pyrimidin-2-yl]-3-[6-(oxetan-3-ylamino)pyridazin-4-yl]oxybenzonitrile], which IC50 is on record?
A: > 1000 nM

Q: CC(C)C(N)c1cnc(-c2ccc(C#N)cc2Oc2cc(-c3ccccn3)nn2C)nc1 (stereo not shown) [compound 768, 4-[5-(1-amino-2-methylpropyl)pyrimidin-2-yl]-3-(2-methyl-5-pyridin-2-ylpyrazol-3-yl)oxybenzonitrile] was tested. Which IC50 did it give?
A: < 10 nM

Q: For CN(CC1CC1)c1cc(Oc2cc(C#N)ccc2-c2ncc(CCN)cn2)n(C)n1 [compound 769, 4-[5-(2-aminoethyl)pyrimidin-2-yl]-3-[5-[cyclopropylmethyl(methyl)amino]-2-methylpyrazol-3-yl]oxybenzonitrile], which IC50 is on record?
A: < 10 nM
